Laboratory results from patent publication US20230348362A1, “LIPID COMPOUNDS AND LIPID NANOPARTICLE COMPOSITIONS” (Suzhou Abogen Biosciences Co., Ltd., priority 2021, published 2023).

Key:
Type in all cases: physicochemical
[1] = Apparent pKa of LNP formulations, TNS fluorescence assay; settings: LNP cationic lipid/DSPC/cholesterol/DMG-PEG 50/10/38.5/1.5 mol %
In short: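 LNPs (cationic lipid/DSPC/cholesterol/DMG-PEG 50/10/38.5/1.5 mol %) diluted to 0.1 mg/mL total lipid in citrate/phosphate/borate/NaCl buffers spanning pH 3–9 with TNS. Fluorescence (ex 325, em 435 nm) read at room temperature; pKa taken as the pH at half-maximal intensity from sigmoidal fit.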

[2] = Lipid nanoparticle size and polydispersity by dynamic light scattering; settings: LNP of lipid/DSPC/cholesterol/PEG-lipid 50:10:38.5:1.5 encapsulating hEPO mRNA
In short: (§1)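 LNPs made from ionizable lipid/DSPC/cholesterol/PEG-lipid (50:10:38.5:1.5) and mRNA in citrate pH 4 by microfluidic mixing, lipid:mRNA about 10:1–30:1 w/w, then dialysed into DPBS and filtered. Size and PDI measured by DLS in backscatter mode; encapsulation efficiency measured by RiboGreen assay.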

[3] = Encapsulation efficiency of lipid nanoparticles, Quant-it Ribogreen RNA assay; settings: LNP of lipid/DSPC/cholesterol/PEG-lipid 50:10:38.5:1.5 encapsulating hEPO mRNA
In short: as §1

SMILES | Apparent Pka [1] | polydispersity [2] | size (nm) [2] [nm] | Encapsulation Efficiency [3] [%]
CCCCCCCCOC(CCCCCN(CCO)CCN(CCCCCC(=O)OCC(CCCCCC)CCCCCCCC)C1CCC1)OCCCCCCCC (stereo not drawn) [Compound 201] | 6.226 | 0.028 | 91.64 | 94.15
CCCCCCCCCCCCCCCCCCOC(=O)CCCCCN(CCN(CCO)CCCCCC(=O)OCC(CCCCCCCC)CCCCCCCC)C1CCCCC1 [Compound 105] | 6.328 | 0.051 | 69.11 | 93.35
CCCCCCCCC(CCCCCC)COC(=O)CCCCCN(CC)CCN(CCO)CCCCC(COC(=O)CCCCCCC)COC(=O)CCCCCCC (stereo not drawn) [Compound 157] | 6.674 | 0.112 | 88.09 | 95.04
CCCCCCCCC(CCCCCC)CNC(=O)CCCCCN(CCO)CCN(CCCCC(COC(=O)CCCCCCC)COC(=O)CCCCCCC)C1CC1 (stereo not drawn) [Compound 155] | 6.28 | 0.071 | 70.67 | 89.57
CCCCCCCCC(CCCCCCCC)COC(=O)CCCCCN(CCO)CCN(CCCCCC(=O)OCC(CCCCCCCC)CCCCCCCC)CC1CCCC1 [Compound 35] | 5.843 | 0.089 | 54.18 | 90.0
CCCCCCCCC(CCCCCCCC)CNC(=O)CCCCCN(CCO)CCN(CCCCCC(=O)OCC(CCCCCCCC)CCCCCCCC)C1CCCC1 [Compound 16] | 6.757 | 0.035 | 59.48 | 99.2
CCCCCCCCC(CCCCCC)COC(=O)CCCCCN(CCO)CCN(CCCCCC(=O)OCC(CCCCCC)CCCCCCCC)C1CCC1 (stereo not drawn) [Compound 7] | 6.427 | 0.06 | 72.78 | 96.5
CCCCCCCCC(CCCCCCCC)COC(=O)CCCCCN(CCO)CCN(CCCCCC(=O)OCC(CCCCCCCC)CCCCCCCC)C1CCC(F)(F)CC1 [Compound 66] | 6.009 | 0.068 | 56.3 | 93.17
CCCCCCCCC(CCCCCCCC)CNC(=O)CCCCCN(CCN(CCCO)CCCCCC(=O)OCC(CCCCCCCC)CCCCCCCC)C1CCC1 [Compound 76] | 6.322 | 0.036 | 84.12 | 92.30
CCCCCCCCC(CCCCCCCC)CC(=O)NCCCCCN(CCN(CCO)CCCCCOC(=O)CC(CCCCCCCC)CCCCCCCC)C1CCCCC1 [Compound 73] | 6.597 | 0.049 | 88.45 | 92.38
CCCCCCCCC(CCCCCC)COC(=O)CCCCCN(CCO)CCN(CCCCC(COC(=O)CCCCCCC)COC(=O)CCCCCCC)C1CC1 (stereo not drawn) [Compound 154] | 6.061 | 0.101 | 56.95 | 87.11
CCCCCCCCCCCC(=O)NCCCCCN(CCN(CCO)CCCCCNC(=O)CC(CCCCCCCC)CCCCCCCC)C1CCCCC1 [Compound 58] | 7.327 | 0.1 | 110 | 97.7
CCCCCCCCCCCC(=O)OCCCCCN(CCN(CCO)CCCCCOC(=O)CC(CCCCCCCC)CCCCCCCC)C1CCC1 [Compound 92] | 6.582 | 0.014 | 80.12 | 91.34
CCCCCCCCCCCOC(=O)CCCCCN(CCN(CCO)CCCCCCCC(=O)OCC(CCCCCCCC)CCCCCCCC)C1CCCCC1 [Compound 48] | 6.295 | 0.037 | 73.5 | 92.1
CCCCCCCCCCCOC(=O)CCCCCN(CCN(CCO)CCCCCOC(=O)OCC(CCCCCCCC)CCCCCCCC)C1CCCCC1 [Compound 128] | 6.539 | 0.093 | 60.57 | 92.31
CCCCCCCC(=O)OCC(CCCCN(CCO)CCCCN(CCCCC(COC(=O)CCCCCCC)COC(=O)CCCCCCC)C1CCC1)COC(=O)CCCCCCC [Compound 219] | 6.327 | 0.103 | 91.17 | 94.13
CCCCCCCC(=O)OCC(CCCCN(CCC)CCCCN(CCO)CCCCC(COC(=O)CCCCCCC)COC(=O)CCCCCCC)COC(=O)CCCCCCC [Compound 184] | 7.098 | 0.172 | 129.75 | 90.65
CCCCCCCCC(CCCCCC)CNC(=O)CCCCCN(CC=C(C)C)CCN(CCO)CCCCC1COC(C(CCCCCC)CCCCCCCC)OC1 (stereo not drawn) [Compound 150] | 6.586 | 0.076 | 76.37 | 91.34
CCCCCCCC/C=C\CCCCCCCC(=O)OCCCCCN(CCO)CCN(CCCCCNC(=O)CC(CCCCCC)CCCCCCCC)C1CCCCCC1 (stereo not drawn) [Compound 152] | 6.646 | 0.031 | 83.28 | 91.68
CCCCCCCCC(CCCCCCCC)COC(=O)CCCCCN(CCO)CCN(CCCCCOC(=O)N(CCCCCCCC)CCCCCCCC)C1CCCCC1 [Compound 127] | 6.226 | 0.090 | 69.05 | 91.77
CCCCCCCCCCCOC(=O)CCCCCN(CCN(CCO)CCCCC(COC(=O)CCCCCCC)COC(=O)CCCCCCC)C1CCC1 [Compound 182] | 6.862 | 0.09 | 99.97 | 91.00
CCCCCCCCCCCOC(=O)CCCCCN(CCN(CCO)CCCCCC(=O)C(CCCCCC)CCCCCCCCC)C1CCCCC1 (stereo not drawn) [Compound 46] | 6.335 | 0.042 | 64.14 | 90.3
CCCCCCCCC(CCCCCCCC)COC(=O)CCOCCN(CCO)CCN(CCOCCC(=O)OCC(CCCCCCCC)CCCCCCCC)C1CCCCC1 [Compound 113] | 6.364 | 0.012 | 89.42 | 92.93
CCCCCCCCC(CCCCCCCC)CNC(=O)CCCCCN(CCO)CCN(CCCCCC(=O)OCC(CCCCCCCC)CCCCCCCC)C1CCCCC1 [Compound 23] | 6.686 | 0.039 | 57.5 | 95.5
CCCCCCCCCCCOC(=O)CCCCCN(CCN(CCO)CCCCCC(=O)OCC(CCCCCC)CCCCCCCC)C1CCC1 (stereo not drawn) [Compound 4] | 6.709 | 0.076 | 90.8 | 91.9
CCCCCCCCC(CCCCCC)CNC(=O)CCCCCN(CCO)CCN(CCCCC(COC(=O)CCCCCCC)COC(=O)CCCCCCC)C1CCCCCC1 (stereo not drawn) [Compound 143] | 6.687 | 0.057 | 69.16 | 90.39
CCCCCCCCC(CCCCCC)COC(=O)CCCCCN(CCO)CCN(CCCCCC(=O)OCC(CCCCCC)CCCCCCCC)C1CCCCCC1 (stereo not drawn) [Compound 24] | 6.162 | 0.114 | 57.78 | 93.90
